{"source": "patent US4332806A", "about": "“Antitumor and immunosuppresive 4-carbamoyl imidazolium-5-olate derivatives, pharmaceutical composition and production thereof” (Sumitomo Chemical Company, Limited, priority 1979, dated 1982)", "key": {"[1]": {"tested_on": "Lewis lung carcinoma", "test": "Antitumor effect on experimental tumors in mice, Lewis lung carcinoma (solid), tumor inhibitory ratio", "format": "in vivo, BDF1 male mice", "conditions": "100 mg/kg, i.p., schedule 5q2d (day 1, 3, 5, 7 and 9), tumors weighed at day 13", "experimental": "The antitumor activities of the compounds of the present invention were estimated according to the methods described in \"Cancer chemotherapy reports\" Part 3, Vol. 3, (No. 2) p. 13 (1972).\nFor determining antitumor activities, BDF1 male mice, 5 weeks old, weighing between 18 and 22 grams were used. Each test group was composed of 6 to 7 mice. Two million cells of Lewis Lung Carcinoma were injected in the hind leg. The drug was administered intraperitoneally at day 1, 3, 5, 7 and 9 (or 5q2d).\nAfter killing the mice at day 13, tumors were removed and weighed. The tumor inhibitory ratio was calculated according to the following formula. [formula]"}, "[2]": {"test": "Acute toxicities (LD50)", "conditions": "mouse, in vivo, ip; ICR male mice, 5 weeks old, intraperitoneal", "experimental": "For determining acute toxicities ICR male mice, 5 weeks old, were used. The drug was administered intraperitoneally."}, "[3]": {"tested_on": "tumors", "conditions": "Japanese Patent Publication (Kokai) No. 53-5162; cited from earlier work"}, "[4]": {"conditions": "Japanese Patent Publication (Kokai) No. 53-5162; cited from earlier work"}}}
{"smiles": "CC12CC3(C)CC(C)(C1)CC(C(=O)Oc1nc[nH]c1C(N)=O)(C2)C3", "note": "[5-carbamoyl-1H-imidazole-4-yl 3',5',7'-trimethyladamantane-1'-carboxylate]", "values": [{"measurement": "Inhibition Ratio, Lewis lung carcinoma (solid)", "setting": "[1]", "value": 90, "unit": "%"}, {"measurement": "LD50", "setting": "[2]", "value": "670 to 1000", "unit": "mg/kg"}]}
{"smiles": "NC(=O)c1[nH]cnc1OC(=O)C12CC3CC(CC(Br)(C3)C1)C2", "note": "[5-carbamoyl-1H-imidazole-4-yl 3'-bromoadamantane-1'-carboxylate]", "values": [{"measurement": "Inhibition Ratio, Lewis lung carcinoma (solid)", "setting": "[1]", "value": 66.2, "unit": "%"}, {"measurement": "LD50", "setting": "[2]", "value": "670 to 1000", "unit": "mg/kg"}]}
{"smiles": "NC(=O)c1[nH]cnc1OC(=O)C12CC3CC(CC(Cl)(C3)C1)C2", "note": "[5-carbamoyl-1H-imidazole-4-yl 3'-chloroadamantane-1'-carboxylate]", "values": [{"measurement": "Inhibition Ratio, Lewis lung carcinoma (solid)", "setting": "[1]", "value": 71.1, "unit": "%"}, {"measurement": "LD50", "setting": "[2]", "value": "> 1000", "unit": "mg/kg"}]}
{"smiles": "NC(=O)c1[nH]cnc1OC(=O)C12CC3CC(C1)CC(c1ccccc1)(C3)C2", "note": "[5-carbamoyl-1H-imidazole-4-yl 3'-phenyladamantane-1'-carboxylate]", "values": [{"measurement": "Inhibition Ratio, Lewis lung carcinoma (solid)", "setting": "[1]", "value": 85.7, "unit": "%"}]}
{"smiles": "NC(=O)c1[nH]cnc1OC(=O)C12CC3CC(CC(C3)C1)C2", "note": "[Compound (IV), 5-Carbamoyl-1H-imidazole-4-yl adamantane-1'-carboxylate]", "values": [{"measurement": "LD50", "setting": "[2]", "value": "250 to 297", "unit": "mg/kg"}, {"measurement": "antitumor activity, known (in words)", "setting": "[3]", "value": "antitumor and immunosuppressive activity"}, {"measurement": "immunosuppressive activity, known (in words)", "setting": "[4]", "value": "immunosuppressive activity"}]}
{"smiles": "NC(=O)c1[nH]cnc1OC(=O)C12CC3CC(CC(F)(C3)C1)C2", "note": "[5-carbamoyl-1H-imidazole-4-yl 3'-fluoroadamantane-1'-carboxylate]", "values": [{"measurement": "Inhibition Ratio, Lewis lung carcinoma (solid)", "setting": "[1]", "value": 65, "unit": "%"}, {"measurement": "LD50", "setting": "[2]", "value": "670 to 1000", "unit": "mg/kg"}]}
